“Also recorded” adds a separate entry of the source. Where two headings read alike, the source gives them in different places.
Assays:
[1] = Cell Titre Blue viability assay, MDA-MB-231; details: human, MDA-MB-231 cells
Description: The viability of cells at experimental endpoints for particular assays was determined using the Cell Titre Blue reagent (Promega, Southampton, UK). This reagent measures the cellular metabolic activity using resazurin as an indicator dye. Viable cells, therefore metabolically active, will reduce resazurin into highly fluorescent resofurin. The resulting fluorescence levels are measured and indicate cell viability.
Cells were plated at low confluency into 96 well plates in 100 μl of complete growth media in triplicates and were incubated at 37° C. in 5% CO2 for the desired test exposure period. For each 100 μl of media in 96 well plates, 20 μl Cell Titre Blue reagent was added followed by incubation for an hour at 37° C. in 5% CO2. Fluorescence was then measured by setting excitation/emission wavelengths to 560/590 nm on a Flurostar Optima plate reader (BMG tabtech, Bucks, UK).
Cell toxicity was evaluated using the Cell Titre Blue viability assay over a range of molarities for 24 hrs.
Selected compounds were dissolved in DMSO and diluted to a highest concentration of 10 μM (0.1% DMSO). In all assays, a DMSO control was always used. Selected compounds were tested for cell toxicity in HEK-293 and MDA-MB-231 cells before being used in cell-based assays. Cell toxicity was evaluated using the Cell Titre Blue viability assay over a range of molarities for 24 hrs

[2] = system: MDA-MB-231 cells overexpressing Bcl-3; test: Boyden chamber cell motility assay; assay type: cell-based, human; details: for IC50: Homo sapiens
Description: The migratory or invasive capacity of human mammary cancer cell lines was assessed by the Boyden chamber assay. Cells were seeded in low serum media in a chamber with porous membrane (transparent polyethylene terephthalate (PET) membranes with 8 μm pores) as a solid support for motility assays or with a porous membrane coated with Matrigel Basement Membrane Matrix (BD BioCoat Growth factor reduced invasion chambers) for invasion assay. The cell insert was placed into a well with complete growth media, therefore cells are stimulated by a serum gradient to migrate or invade across the membrane through pores.
Total of 750 μl of complete growth media containing 10% of serum was added to appropriate wells of a 24 well cell culture insert companion plate (BD Biosciences, Oxford, UK). A cell culture insert (BD Biosciences, Oxford, UK) was then carefully placed into each well of the insert companion plate using tweezers. Cells were detached from tissue culture plates using 0.25% w/v Trypsin/EDTA (Invitrogen) and centrifuged at 13000 rpm for 5 min. Cells were washed twice in serum free media by resuspension and centrifugation. The appropriate number of cells (2×10^5 cells/ml for MDA-MB-231 cells) was resuspended in normal growth media containing only 0.10% serum. 350 μl of the cell suspension was added to the appropriate upper chambers of the cell culture inserts and plates were incubated for 24 hrs at 37° C. and 5% CO2.
After incubation, cells on membranes were fixed by replacing the media in the top and bottom sections of the chamber with 70% ice-cold ethanol (Fisher Scientific). Plates were incubated at −20° C. for at least an hour. After fixation, inserts were immersed in a tap water using tweezers to ensure all ethanol was removed. A moistened cotton wool bud was then used to mechanically remove all cells fixed on the upper side of the membranes. Cells were stained by individually immersing the inserts into filtered Harris' Haematoxylin (Sigma, Dorset, UK) for 1 min. Following this, inserts were washed in a beaker of tap water to remove the dye and immersed in 0.5% filtered Eosin (Sigma, Dorset, UK) for 2 min. Stained inserts were then washed again in a tap water.
Glycerol Gelatin (Sigma, Dorset, UK) was heated in a beaker of boiling water and once liquefied, a drop was placed onto an appropriately labelled microscope slide (R. A. Lamb, Loughborough, UK). Membranes were cut out of the insert and transferred onto the corresponding slide with tweezers. Glycerol Gelatin was added to the top of the membranes and a cover slip was placed on the slide under firm pressure. Mounted slides were left to air dry before being analyzed.
We therefore generated a dose response curve to determine an IC50 in this assay. MDA-MB-231 cells overexpressing Bcl-3 were cultivated with Compound 1a and DMSO control over a range of molarities for 24 hrs before being seeded onto Boyden migration chambers. The constant number of live cells present during this assay across samples was monitored by cell count.
Therefore we wanted to establish whether designed analogues have similar or improved ability to suppress cell migration. MDA-MB-231 Bcl-3 over-expressing cells were cultivated with selected analogues (1f, 2a, 2c, 3a) and DMSO control over a range of molarities for 24 hrs before being seeded onto the Boyden motility chambers. Migrated cells were visualized and counted after 24 hrs. The dose response curves were generated using GraphPad software (FIG. 9). The constant number of live cells present during this assay across samples was monitored by cell count.

[3] = Cell Titre Blue viability assay, HEK-293; assay type: cell-based; details: human, HEK-293 cells, HEK-293, 10 μM, vs DMSO
Source text: In all assays, a DMSO control was always used.

[4] = system: NF-κB activity; test: NF-κB luciferase reporter assay in MDA-MB-231 cells overexpressing Bcl-3; assay type: cell-based, human; details: for effect on NF-κB activity: 1 μM, 24 hrs, MDA-MB-231 Bcl-3 over-expressing cells, vs DMSO control / Compound 1a; for IC50: Homo sapiens
Description: For NF-κB luciferase assays, cells were seeded into clear bottom black 96-well plates (Corning Inc., Lowell, US) in antibiotic free culture media in appropriate density. After 24 hrs, cells were transfected with 10 ng of 3×κB luciferase plasmid and 10 ng of pcDNA3.1-Lacl plasmid per well. Empty pcDNA3.1 plasmid was also included to normalize the total weight of DNA transfected to 100 ng. For positive and negative controls respectively, 10 ng of pGL3control or pGL3basic were transfected in place of 3×KB luciferase plasmid. Transfection was carried out using Lipofectamine LTX reagents (Invitrogen, Paisley, UK).
After 48 hrs post-transfection with luciferase reporter plasmid, the media was aspirated and cells were lyzed using 50 μl/well of Glo-lysis buffer (Promega, Southampton, UK). The plate was left on a rocker for 20 min to facilitate complete cell lysis. Then, 20 μl of lysate from each well was removed and transferred into a new clear bottom black well plate for measuring LacZ activity as a transfection efficiency control and followed by addition of 20 ul/well of Beta-Glo substrate (Promega, Southampton, UK) and cultivation at room temperature for at least 20 min. Subsequently, 30 μl/well of Bright-Glo luciferase substrate (Promega, Southampton, UK) was added to the original plate and asses immediately for luminescence activity. The luminescence produced from either reaction was read using a Flurostar Optima plate reader (BMG tabtech, Bucks, UK).
The effect of Compound 1a on NF-κB activity was determined by NF-κB luciferase assay in MDA-MB-231 and HEK-293 cells overexpressing Bcl-3 and HEK-293 cells overexpressing p52. Cells were cultivated with Compound 1a over a range of molarities for 24 hrs before being transfected with NF-κB luciferase reporter plasmid for 48 hrs and analyzed for NF-κB activity.
The effect of selected analogues on NF-κB activity was determined by NF-KB luciferase assay in MDA-MB-231 cells. MDA-MB-231 Bcl-3 over-expressing cells were cultivated with compounds from series 1-3 at 1 μM concentration for 24 hrs before being transfected with NF-κB luciferase reporter plasmid for 48 hrs together with controls and analyzed for NF-κB activity.
Based on the results for the series of analogues, we have established dose response curve for selected analogues from series 1 (If), from series 2 (2a and 2c) and from series 3 (3a) over a range of molarities. MDA-MB-231 Bcl-3 WT cells were cultivated with selected compounds from series 1-3 over a range of molarities for 24 hrs before being transfected with NF-κB luciferase reporter plasmid for 48 hrs together with controls and analyzed for NF-κB activity (FIG. 7).

[5] = MDA-MB-231, Table 3, read-out: Cell motility assay (μM) IC50
[6] = MDA-MB-231 overexpressing Bcl-3, 24 hrs pre-treatment, 24 hrs migration, read-out: IC50 cell motility (Boyden chamber)
[7] = MDA-MB-231 overexpressing Bcl-3, 24 hrs then reporter 48 hrs, read-out: IC50 NF-κB activity
[8] = Table 3, MDA-MB-231, read-out: NF-κB assay (μM) IC50
[9] = MDA-MB-231 Bcl-3 WT, 24 hrs then reporter 48 hrs, read-out: IC50 NF-κB activity

SMILES	EC50 at 24 h [1]	viability at 24 h, 10 µM [1]	cell migration ([2]; 10 nM concentration)	IC50 [2, 5]	IC50 [2, 6]	viability at 24 h, 10 µM [3]	effect on NF-κB activity [4]	IC50 [4, 7]	IC50 [4, 8]	IC50 [4, 9]	IC50 ([2]; MDA-MB-231 overexpressing Bcl-3, read-out: IC50 cell motility (Boyden chamber))	viability at 24 h, 1 mM [1]	migration ability ([2]; MDA-MB-231 cells, 10 μM)
COc1ccc(C(=O)Nc2ccccc2C(=O)NCCN2CCOCC2)cc1 [Compound 1f, 2-[(4-methoxybenzoyl)amino]-N-(2-morpholin-4-ylethyl)benzamide]	781000 nM	> 70%	below 50%	0.0289 µM	0.0289 µM	> 70%	significant decrease	0.00697 µM	0.00697 µM	–	–	–	–
COc1cccc(C(=O)NCCN2CCOCC2)c1NC(=O)c1ccccc1F [Compound 3a, 2-[(2-fluorobenzoyl)amino]-3-methoxy-N-(2-morpholin-4-ylethyl) benzamide]	–	> 70%	–	0.9 µM	0.9 µM	> 70%	comparable effect on NF-κB activity with Compound 1a	–	1.07 µM	1.07 µM	–	–	–
O=C(Nc1ccccc1C(=O)NCCCN1CCOCC1)c1ccccc1F [Compound 2a]	–	> 70%	–	1.33 µM	–	> 70%	significantly decreased NF-κB activity; also recorded: comparable activity with Compound 1a	–	2.5 µM	2.5 µM	1.33 µM	–	–
O=C(Nc1ccccc1C(=O)NCCN1CCOCC1)c1ccccc1F [Compound 1a, 2-[(2-fluorobenzoyl)amino]-N-(2-morpholin-4-ylethyl)benzamide]	–	> 70%	–	0.31 µM	0.31 µM	> 70%	significant decrease; also recorded: most potent suppression of NF-κB activity	0.0494 µM	0.0454 µM	–	–	72%	significantly suppressed migration ability
